Tests used:
Experiment in all cases: greenhouse post-emergence herbicidal test
Type in all cases: in vivo
[1] = test system: AMBEL (Ambrosia elatior); details: AMBEL; a) 3.125 g/ha, MSO or COC 1.25%, scale 0-100
Excerpt: (§1) The culture vessels used were plastic flowerpots filled, as substrate, with sandy loam comprising about 3% of humus. The seeds of the test plants were sown separated according to species.
(§2) For the post-emergence treatment, the test plants were initially cultivated to a height of 3-17 cm according to their habit and only then treated with the active compounds, which had been suspended or emulsified in water. To this end, the test plants were either sown directly and cultivated in the same vessels, or they were initially cultivated separately as seedlings and transplanted into the test vessels a few days prior to the treatment. According to the species, the plants were kept at temperatures of from 15° C. to 25° C. or from 20 to 35° C. The trial period extended over 3 weeks. During this time the plants were tended and their response to the individual treatments was evaluated.
(§3) The application in the greenhouse was carried out at a spray liquor application rate of 200 l/ha.

[2] = test system: ECHCG (Echinochloa crus-galli); details: MSO or COC 1.25%, scale 0-100
Excerpt: as §1, §2, §3

[3] = test system: HELAN (Helianthus annua); details: HELAN; a) 6.25 g/ha, MSO or COC 1.25%, scale 0-100
Excerpt: as §1, §2, §3

[4] = test system: PANDI (Panicum dichotomiflorum); details: PANDI; a) 25 g/ha, MSO or COC 1.25%, scale 0-100
Excerpt: as §1, §2, §3

[5] = test system: PANMI (Panicum milliaceum); details: PANMI; a) 12.5 g/ha, MSO or COC 1.25%, scale 0-100
Excerpt: as §1, §2, §3

[6] = test system: SETVI (Setaria viridis); details: SETVI; a) 12.5 g/ha, MSO or COC 1.25%, scale 0-100
Excerpt: as §1, §2, §3

[7] = test system: SOLNI (Solanum nigrum); details: SOLNI; a) 3.125 g/ha, MSO or COC 1.25%, scale 0-100
Excerpt: as §1, §2, §3

[8] = test system: SORBI (Sorghum bicolor); details: SORBI; a) 25 g/ha, MSO or COC 1.25%, scale 0-100
Excerpt: as §1, §2, §3

[9] = test system: XANST (Xanthium strumarium); details: XANST; a) 12.5 g/ha, MSO or COC 1.25%, scale 0-100
Excerpt: as §1, §2, §3

Cc1c(C(=O)c2cnn(C)c2O)ccc(S(C)(=O)=O)c1C1=NOCC1 [a)]
observed effect [1]: 60
observed effect ([2]; ECHCG; a) 12.5 g/ha): 0
observed effect ([2]; ECHCG; a) 25 g/ha): 0
observed effect [3]: 30
observed effect [4]: 0
observed effect [5]: 75
observed effect [6]: 60
observed effect [7]: 30
observed effect [8]: 10
observed effect [9]: 65

— patent US20070123426A1, “Mixtures” (BASF Aktiengesellschaft, priority 2005, published 2007)
